Laboratory results as given in US20230381142A1, “ANTILEISHMANIAL COMPOUNDS, COMPOSITIONS AND USE THEREOF” (TRUSTEES OF BOSTON UNIVERSITY, priority 2022, published 2023).
Values after ≈ are worked out from the molar mass of the structure shown.

Experiments:
[1] = Property forecast index (PFI = ChromLogD7.4 + aromatic rings); assay type: physicochemical
Whole blood stability = assay type: in vitro ADME; conditions: criterion: no % reduction over 120 min
[2] = Mouse microsomal stability; assay type: in vitro ADME; conditions: mouse liver microsomes
Method: Mouse microsomal stability assays were performed as described. Test compound (0.5 μM) was incubated with female CD1 mouse (Xenotech) liver microsomes and their action started with addition of excess NADPH (8 mg/mL 50 mM potassium phosphate buffer, pH 7.4). Aliquots (50 μL) of the incubation mixture were removed immediately (at time 0) and at 3, 6, 9, 15, and 30 min and mixed with acetonitrile (100 μL) to stop the reaction. Internal standard was added to all samples, the samples were centrifuged to sediment precipitated protein, and the plates were then sealed prior to UPLC-MS/MS analysis using a Quattro Premier XE (Waters Corporation, USA). XLfit (IDBS, UK) was used to calculate the exponential decay and consequently the rate constant (k) from the ratio of the peak area of test compound to internal standard at each time point. The rate of intrinsic clearance (Cli) of each test compound was then calculated using the equation Cli (mL/min/g liver)=k×V×microsomal protein yield, where V (mL/mg protein) is the incubation volume/mg protein added and microsomal protein yield is taken as 52.5 mg protein/g liver. Verapamil (0.5 μM) was used as a positive control to confirm acceptable assay performance.

[3] = Kinetic aqueous solubility by CLND; assay type: physicochemical; conditions: kinetic from dmso stock, high-throughput CLND
Method: (§1) Solubility of compounds using ChemiLuminescent Nitrogen Detection (CLND) was measured as described. Solubility of compounds using Charged Aerosol Detection (CAD) was measured as described. Solubility of solid compounds in Fasted Simulated Intestinal Fluid (FaSSIF) was measured as described.

[4] = Solubility in Fasted Simulated Intestinal Fluid (FaSSIF); assay type: physicochemical; conditions: thermodynamic from solid
Method: as §1

[5] = UCSD infection assay, host cell cytotoxicity (CC50); assay type: cell-based; conditions: host macrophages infected with L. donovani; cytotoxicity against host macrophages
[6] = Plasma protein binding (RED); assay type: in vitro ADME
Method: The unbound fraction of compound 1 in plasma was measured using a commercial RED (Rapid Equilibrium Dialysis) plate with inserts (Thermo) with a molecular weight membrane cut off of 8K. The relevant volume of spiked sample matrix was added into the corresponding sample chambers of the RED insert. Three volume equivalents of dialysis buffer were added to the buffer chamber. The dialysis plate was sealed and incubated at 37° C. on a plate shaker for approximately 4 h at 100 rpm. An equivalent volume was removed from each of the three buffer sample chambers and placed into its own well in a clean plate. A specific volume of control matrix was added to each buffer sample for matrix matching. Next, >3× volume of precipitation solvent (acetonitrile+internal standard) was added and the plate was centrifuged. A measured volume of the resulting supernatants was transferred into a clean plate and a specific volume of analytical grade water was added to all samples. Samples were analyzed using a compound-specific LC-MS/MS method to generate analyte peak area ratios which are representative of bound and free drug.

Row | PFI [1] | Whole blood stability (Whole blood stability) | half-life at 0.5 μM ([2]; female, CD1, pH 7.4, read-out: Microsomal stability (mouse) t1/2) | Microsomal stability (mouse) Clint [2] | solubility ([3]; aqueous medium) | solubility [4] | fraction unbound at 4 h [6] | solubility ([3]; aqueous medium (not further specified)) | Structure (SMILES) | CC50 at 72 h [5]
1 | 8.4 | Pass | > 20 min | Clint < 3.4 mL/min/g | 107 µM (≈ 40.6 µg/mL) | 130 µg/mL (≈ 343 µM) | 0.025 | – | COc1ccc(N2C(=O)c3[nH]nc(CC(C)C)c3C2c2ccc(F)cc2)cc1 (racemic) [Compound 1, 4-(4-fluorophenyl)-3-isobutyl-5-(4-methoxyphenyl)-4,5-dihydropyrrolo[3,4-c]pyrazol-6(1H)-one] | > 20 µM
2 | 8.4 | – | – | – | – | – | – | 90 µM (≈ 32.5 µg/mL) | COc1ccc(N2C(=O)c3[nH]nc(CC(C)C)c3C2c2ccccc2)cc1 (stereo not shown) [Compound 2] | –
